In series [1] the test system is rat serum proteins. Conditions: cited from earlier work.
For series [2], the system named is rat middle cerebral artery occlusion and reperfusion model. Kind of series: Cerebral edema in rat middle cerebral artery occlusion and reperfusion model. The class given is in vivo, Wistar rats. How it is done:
After eight weeks to nine weeks old Wistar rats (220 to 260 g) were subjected to inhalation anesthesia with halothane, the inhalation anesthesia with 1% halothane (anesthesia; nitrous oxide: oxygen=7:3) was continued while fixing them in a dorsal position and maintaining their body temperature at around 37° C. In an infusion administration group and a bolus+infusion administration group, a catheter was placed in the femora vein. The right common carotid artery, external carotid artery and internal carotid artery were exposed and the common carotid artery and external carotid artery were ligated in order to occlude the middle cerebral artery. From the common carotid artery, a No. 4 nylon suture (plug) was inserted to occlude the middle cerebral artery. Three hours after occlusion of the middle cerebral artery, the plug was taken out from the common carotid artery and perfusion of the middle cerebral artery was resumed, and then the administration was started as in Table 3. Decapitation and surgical removal of the brain were performed three hours after reperfusion. After separation of the right and left cerebral cortex, the wet weight was measured. After drying at 130° C. for 24 hours, the dry weight was determined. A percentage water content was calculated in accordance with the following equation: (wet weight (g)−dry weight (g))/wet weight (g)×100. The constitution and dose of each group are shown below in Table 3. It is to be noted that to the drug administered groups other than the control group, Edaravone was administered as a drug in accordance with Table 3.

Series [3] deals with human serum proteins. Conditions: cited from earlier work.
The test system of series [4] is rat middle cerebral artery occlusion. In words: Dose response test with rat (middle cerebral artery occlusion/reperfusion, infarct). The class given is in vivo, Crj:CD(SD) male rats. Here is the method:
Seven weeks to eight weeks old Crj:CD(SD) male rats (190 to 250 g) were subjected to anesthesia with isoflurane, and were fixed in a dorsal position with their body temperature kept at around 37° C. A catheter for drug administration was placed in the cervical vein. The right common carotid artery, external carotid artery and internal carotid artery were exposed and the common carotid artery and external carotid artery were ligated in order to occlude the middle cerebral artery. From the branch of the external carotid artery and the internal carotid artery, a silicone-coated No. 4 nylon suture (plug) was inserted to occlude the middle cerebral artery. Two hours after occlusion of the middle cerebral artery, the plug was taken out and perfusion of the middle cerebral artery was resumed, and then the administration was started as in Table 5. Decapitation and surgical removal of the brain were performed 24 hours after reperfusion. Five brain sections each having a thickness of 2 mm (from the bregma part, from 2 mm before and behind parts of the bregma, and from 4 mm before and behind parts of the bregma) were prepared. The brain sections were stained with 1 w/v % 2,3,5-triphenyltetrazolium chloride, and the infarct area was measured to calculate the infarct volume. […]

Series [5] has as its system monkey middle cerebral artery occlusion. Kind of series: Dose response test with monkey (middle cerebral artery occlusion, infarct). The class given is in vivo, croo monkey. Particulars: Edaravone administered groups (0.1-0.4 mg/kg loading + 0.5-2.0 mg/kg/hr maintenance i.v.), 28 hours after occlusion. How it is done: A croo monkey (3 years to 5 years old) was subjected to […], and then its body temperature was kept at around 37° C. The middle cerebral artery at around the branch of the left internal carotid artery was exposed, and the middle cerebral artery was occluded by electrocoagulation. Then, the administration was started as in Table 6. 28 hours after occlusion (just after administration), the whole brain was removed under deep anesthesia by excess pentobarbital administration, and coronary brain sections each having a thickness of 4 mm were cut out of the forehead. The brain sections were stained with 1 w/v % 2,3,5-triphenyltetrazolium chloride, and the infarct area was measured to calculate the infarct volume.
In the drug administered groups other than the solvent group, Edaravone was used as the drug and this was administered as in Table 6.

`CC1=NN(c2ccccc2)C(=O)C1` [Edaravone, 1-phenyl-3-methyl-2-pyrazolin-5-one]: the “binding ratio with serum proteins” value in series [1] is recorded as 85.8%; in series [3], 91.9%. The “increase in percentage water content of cortex” value is on record as “almost equal” in series [2] (bolus group, 3 mg/kg i.v. immediately after reperfusion, brain removed 3 h after reperfusion); “lowest” in series [2] (bolus+infusion group, 0.2 mg/kg i.v. + 1 mg/kg/hr i.v. for 2.75 hours); “almost equal” in series [2] (infusion group, 1 mg/kg/hr i.v. for 3 hours after reperfusion). The infarct area result in series [4] (0.1 mg/kg+0.5 mg/kg/hr i.v., P<0.05 vs physiological saline) is listed as “significantly decreased”. Besides, the “infarct volume compared with control group” value was “small” in series [4] (Edaravone administered groups (0.05-0.2 mg/kg loading + 0.25-1.0 mg/kg/hr maintenance i.v.), 24 hours after reperfusion) and “small” in series [5].
